Results from patent US5891909A, “Amidinohydrazones as protease inhibitors” (3-Dimensional Pharmaceuticals, Inc., priority 1997, dated 1999).
Where a name gives a salt, the structure may show the parent alone. Read-outs that look alike come from different tables or passages of the source.

Assays:
Type in all cases: biochemical
human α-thrombin = molecular target: T1, human α-thrombin (Homo sapiens, UniProt P00734); test: Thrombin inhibition, Ki determination (hydrolysis of N-succinyl-Ala-Ala-Pro-Arg-p-nitroanilide); conditions: pH 7.5, 37° C.
T1 construct: Human α-thrombin, human factor Xa and human plasmin were obtained from Enzyme Research Laboratories; purchased Enzyme Research Laboratories (South Bend, Ind.)
Description: (§1) All buffer salts were obtained from Sigma Chemical Company (St. Louis, Mo.), and were of the highest purity available. The enzyme substrates, N-benzoyl-Phe-Val-Arg-p-nitroanilide (Sigma B7632), N-benzoyl-Ile-Glu-Gly-Arg-p-nitroanilide hydrochloride (Sigma B2291), N-p-Tosyl-Gly-Pro-Lys-p-nitroanilide (Sigma T6140), N-succinyl-Ala-Ala-Pro-Phe-p-nitroanilide (Sigma S7388) and N-CBZ-Val-Gly-Arg-p-nitroanilide (Sigma C7271) were obtained from Sigma.
Human α-thrombin, human factor Xa and human plasmin were obtained from Enzyme Research Laboratories (South Bend, Ind.). Bovine α-chymotrypsin (Sigma C4129), bovine trypsin (Sigma T8642) and human kidney cell urokinase (Sigma U5004) were obtained from Sigma. Human leukocyte elastase was obtained from Elastin Products (Pacific, Mo.).
All assays are based on the ability of the test compound to inhibit the enzyme catalyzed hydrolysis of a peptide p-nitroanilide substrate. […] The final concentrations for each of the substrates is listed below. In general, substrate concentrations are lower than the experimentally determined value for Km. Test compounds are prepared as a 1.0 mg/ml solution in DMSO. Dilutions are prepared in DMSO yielding 8 final concentrations encompassing a 200 fold concentration range. Enzyme solutions are prepared at the concentrations listed below in assay buffer.
Data corresponding to less than 10% of the total substrate hydrolysis were used in the calculations. The ratio of the velocity (rate of change in absorbance as a function of time) for a sample containing no test compound is divided by the velocity of a sample containing test compound, and is plotted as a function of test compound concentration. The data are fit to a linear regression, and the value of the slope of the line calculated. The inverse of the slope is the experimentally determined Ki value.
Thrombin activity was assessed as the ability to hydrolyze the substrate N-succinyl-Ala-Ala-Pro-Arg-p-nitroanilide.

bovine α-chymotrypsin = test: Chymotrypsin inhibition (hydrolysis of N-succinyl-Ala-Ala-Pro-Phe-p-nitroanilide); conditions: at 1.6 μM
Description: as §1, with “Sigma. N-succinyl-Ala-Ala-Pro-Arg-p-nitroanilide (BACHEM L-1720) and N-succinyl-Ala-Ala-Pro-Val-p-nitroanilide (BACHEM L-1770) were obtained from BACHEM (King of Prussia, Pa.). […]” for “Sigma.”
(§2) All assays are based on the ability of the test compound to inhibit the enzyme catalyzed hydrolysis of a peptide p-nitroanilide substrate. […] In general, substrate concentrations are lower than the experimentally determined value for Km. […]
(§3) In a typical Ki determination, into each well of a 96 well plate is pipetted 280 μL of substrate solution, 10 μL of test compound solution, and the plate allowed to thermally equilibrate at 37° C. in a Molecular Devices plate reader for >15 minutes. Reactions were initiated by the addition of a 10 μL aliquot of enzyme and the absorbance increase at 405 nm is recorded for 15 minutes. […] The data are fit to a linear regression, and the value of the slope of the line calculated. The inverse of the slope is the experimentally determined Ki value. […]

human plasmin = test: Plasmin inhibition (hydrolysis of N-p-Tosyl-Gly-Pro-Lys-p-nitroanilide); conditions: at 1.6 μM
Description: as §1, with “Sigma. N-succinyl-Ala-Ala-Pro-Arg-p-nitroanilide (BACHEM L-1720) and N-succinyl-Ala-Ala-Pro-Val-p-nitroanilide (BACHEM L-1770) were obtained from BACHEM (King of Prussia, Pa.). […]” for “Sigma.”
as §2, §3

human kidney urokinase = test: Urokinase inhibition (hydrolysis of N-CBZ-Val-Gly-Arg-p-nitroanilide); conditions: at 1.6 μM
Description: as §1, with “Sigma. N-succinyl-Ala-Ala-Pro-Arg-p-nitroanilide (BACHEM L-1720) and N-succinyl-Ala-Ala-Pro-Val-p-nitroanilide (BACHEM L-1770) were obtained from BACHEM (King of Prussia, Pa.). […]” for “Sigma.”
as §2, §3

human factor Xa = test: Factor Xa inhibition (hydrolysis of N-benzoyl-Ile-Glu-Gly-Arg-p-nitroanilide); conditions: at 1.6 μM
Description: as §1, with “Sigma. N-succinyl-Ala-Ala-Pro-Arg-p-nitroanilide (BACHEM L-1720) and N-succinyl-Ala-Ala-Pro-Val-p-nitroanilide (BACHEM L-1770) were obtained from BACHEM (King of Prussia, Pa.). […]” for “Sigma.”
as §2, §3

bovine trypsin = test: Trypsin inhibition (hydrolysis of N-benzoyl-Phe-Val-Arg-p-nitroanilide); conditions: at 1.6 μM
Description: as §1, with “Sigma. N-succinyl-Ala-Ala-Pro-Arg-p-nitroanilide (BACHEM L-1720) and N-succinyl-Ala-Ala-Pro-Val-p-nitroanilide (BACHEM L-1770) were obtained from BACHEM (King of Prussia, Pa.). […]” for “Sigma.”
as §2, §3

human leukocyte elastase = test: Elastase inhibition (hydrolysis of N-succinyl-Ala-Ala-Pro-Val-p-nitroanilide); conditions: at 1.6 μM
Description: as §1, with “Sigma. N-succinyl-Ala-Ala-Pro-Arg-p-nitroanilide (BACHEM L-1720) and N-succinyl-Ala-Ala-Pro-Val-p-nitroanilide (BACHEM L-1770) were obtained from BACHEM (King of Prussia, Pa.). […]” for “Sigma.”
as §2, §3

Row | SMILES | Ki (human α-thrombin; Table 2, read-out: Ki (thrombin)) [µM] | % Inhibition (chymotrypsin) (bovine α-chymotrypsin) [%] | % Inhibition (plasmin) (human plasmin) [%] | % Inhibition (urokinase) (human kidney urokinase) [%] | % Inhibition (Factor Xa) (human factor Xa) [%] | % Inhibition (trypsin) (bovine trypsin) [%] | % Inhibition (elastase) (human leukocyte elastase) [%] | Ki (human α-thrombin; Table 1, read-out: Thrombin Ki) [µM]
1 | Cc1cc(OCCC=NNC(=N)N)cc(OS(=O)(=O)c2ccccc2Cl)c1 [Example 1, 2-[2-[3-(2-Chlorophenylsulfonyloxy)-5-methylphenoxy]ethyl-1-methylene]hydrazinecarboximidamide hydrochloride] | 0.013 | 0 | 0 | 0 | 0 | 0 | 0 | –
2 | Cc1cc(OCCC=NNC(=N)N)cc(OS(=O)(=O)c2cccc(C#N)c2)c1 [Example 36, 2-[2-[3-(3-Cyanophenylsulfonyloxy)-5-methylphenoxy]ethyl-1-methylene]hydrazinecarboximidamide nitrate] | – | – | – | – | – | – | – | 0.068
3 | Cc1cc(OCC2(C=NNC(=N)N)CC2)cc(OS(=O)(=O)c2ccccc2C#N)c1 [Example 39, 2-[[1-[3-(2-Cyanophenylsulfonyloxy)-5-methylphenoxy]-methyl]cyclopropyl-1-methylene]hydrazinecarboximidamide acetate] | – | – | – | – | – | – | – | 0.052
